Columns and labels:
[1] = target: T1, Dihydrofolate reductase (Bos taurus) (UniProt P00376)
T1 sequence (whole entry): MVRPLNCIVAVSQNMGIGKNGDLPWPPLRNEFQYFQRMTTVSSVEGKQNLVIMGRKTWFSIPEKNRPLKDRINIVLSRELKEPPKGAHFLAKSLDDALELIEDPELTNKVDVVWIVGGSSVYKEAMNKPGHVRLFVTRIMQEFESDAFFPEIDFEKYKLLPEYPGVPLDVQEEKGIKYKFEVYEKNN
Description: Inhibition of dihydrofolate reductase from bovine liver

[2] = target: T2, Dihydrofolate reductase (Escherichia coli) (UniProt P0ABQ4)
T2 sequence (whole entry): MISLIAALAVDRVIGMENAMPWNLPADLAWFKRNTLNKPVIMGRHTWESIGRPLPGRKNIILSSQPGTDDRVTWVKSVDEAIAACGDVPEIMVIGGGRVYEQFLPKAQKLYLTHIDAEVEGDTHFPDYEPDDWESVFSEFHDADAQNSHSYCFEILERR
Description: Compound is evaluated for the inhibition of dihydrofolate reductase from Escherichia coli

Nc1ncc(Cc2cccc(I)c2)c(N)n1
Log 1/Ki app [1]: 6.15

CCCCOCc1cccc(Cc2cnc(N)nc2N)c1
Log 1/Ki app [1]: 5.86

Nc1ncc(Cc2ccc(OC(F)(F)F)cc2)c(N)n1
Log 1/Ki app [2]: 6.57 | Log 1/Ki app [1]: 5.42

Nc1ncc(Cc2cccc(O)c2)c(N)n1
Log 1/Ki app [1]: 4.88

Nc1ncc(Cc2cccc(CO)c2)c(N)n1
Log 1/Ki app [1]: 5.2

CCCCOc1ccc(Cc2cnc(N)nc2N)cc1
Log 1/Ki app [1]: 5.74

COCCOc1c(OC)cc(Cc2cnc(N)nc2N)cc1OC
Log 1/Ki app [1]: 4.88

COc1ccc(Cc2cnc(N)nc2N)cc1OC
Log 1/Ki app [1]: 5.15

COCc1cccc(Cc2cnc(N)nc2N)c1
Log 1/Ki app [1]: 5.49

Nc1ccc(Cc2cnc(N)nc2N)cc1
Log 1/Ki app [1]: 4.57

Cc1ccc(Cc2cnc(N)nc2N)cc1
Log 1/Ki app [1]: 4.8

CS(=O)(=O)Oc1cccc(Cc2cnc(N)nc2N)c1
Log 1/Ki app [2]: 6.92 | Log 1/Ki app [1]: 5.58

Nc1ncc(Cc2cccc(C(F)(F)F)c2)c(N)n1
Log 1/Ki app [1]: 5.53

CC(=O)Nc1ccc(Cc2cnc(N)nc2N)cc1[N+](=O)[O-]
Log 1/Ki app [2]: 6.97 | Log 1/Ki app [1]: 5.16

From ChEMBL document CHEMBL1121828, “Quantitative structure-selectivity relationships. Comparison of the inhibition of Escherichia coli and bovine liver dihydrofolate reductase by 5-(substituted-benzyl)-2,4-diaminopyrimidines” (J Med Chem, 1981)
